Data set [1] is described as follows: Stability of iodosulfuron-methyl-sodium solid forms. Format: physicochemical. The conditions noted are these: hydrolysis when dissolved or dispersed in water and during storage exposed to moisture.
The conditions of data set [2]: compared with the amorphous state; from U.S. Ser. No. 14/926,133; cited from earlier work.

Take `COC(=O)c1ccc(I)cc1S(=O)(=O)NC(=O)Nc1nc(C)nc(OC)n1.[Na]` [sodium salt of methyl 4-iodo-2-[[[[(4-methoxy-6-methyl-1,3,5-triazin-2-yl)amino]carbonyl]amino]sulfonyl]benzoate]: in data set [1], the stability entry was “highly unstable”. Moreover, in data set [2], the stability in formulations entry is “improved stability”.

(Values after US20170118987A1, “SYNERGISTIC HERBICIDAL COMPOSITION AND USE THEREOF” (ROTAM AGROCHEM INTERNATIONAL CO., LTD, priority 2015, published 2017).)
